From US20170312200A1, “AN AGENT FOR IMPROVING MITOCHONDRIAL FUNCTION” (SHOWA DENKO K.K., priority 2014, published 2017)

Legend:
Type in all cases: cell-based
[1] = system: human skin fibroblasts NB1-RGB cells; experiment: Measurement of cells in which apoptosis had been caused (JC-1 green fluorescence, mitochondrial membrane potential as index); conditions: aged cells (600 μM hydrogen peroxide), specimen 10 μM, 48 hours; relative value with normal cells as 1
Method: The effect on mitochondrial function improvement in human skin fibroblasts NB1-RGB cells was measured under the following conditions using a mitochondrial membrane potential as an index. By performing an operation for 4 days in which confluent NB1-RGB cells were cultured for one hour in a DMEM medium containing 10% fetal bovine serum and 600 μM hydrogen peroxide solution, cells induced of artificial aging by oxidation were prepared as aged cells. These aged cells and normal, unprocessed cells were prepared at a seeding density of 4,000 cells/cm^2 and cultured for 24 hours in the DMEM medium containing 10% fetal bovine serum. […] After changing a medium to new assay solution supplied in Assay Kit, a fluorescence intensity of the living cells was measured at an excitation wavelength of 520 to 570 nm and a fluorescence wavelength of 570 to 610 nm, and the dead cells at an excitation wavelength of 485 nm and a fluorescence wavelength of 535 nm. In order to obtain a ratio of dead cells in which apoptosis had been caused, only the green fluorescence intensity of a cell group to be measured was measured, and relative values, with a measured value of the normal cells as 1, are shown in Table 2.

[2] = system: human skin fibroblasts NB1-RGB cells; experiment: Effect on mitochondrial function improvement (JC-1 red/green fluorescence, mitochondrial membrane potential); conditions: aged cells (600 μM hydrogen peroxide), specimen 10 μM, 48 hours; relative value with normal cells as 1
Method: The effect on mitochondrial function improvement in human skin fibroblasts NB1-RGB cells was measured under the following conditions using a mitochondrial membrane potential as an index. By performing an operation for 4 days in which confluent NB1-RGB cells were cultured for one hour in a DMEM medium containing 10% fetal bovine serum and 600 μM hydrogen peroxide solution, cells induced of artificial aging by oxidation were prepared as aged cells. These aged cells and normal, unprocessed cells were prepared at a seeding density of 4,000 cells/cm^2 and cultured for 24 hours in the DMEM medium containing 10% fetal bovine serum. […] After changing a medium to new assay solution supplied in Assay Kit, a fluorescence intensity of the living cells was measured at an excitation wavelength of 520 to 570 nm and a fluorescence wavelength of 570 to 610 nm, and the dead cells at an excitation wavelength of 485 nm and a fluorescence wavelength of 535 nm. In order to evaluate the state of mitochondrial membrane potential, red fluorescence intensity and green fluorescence intensity of a cell group to be measured were measured, and values of red fluorescence intensity divided by green fluorescence intensity were calculated, and their relative values, with a measured value of the normal cells as 1, are shown in Table 3. […]

[3] = system: human skin fibroblasts NB1-RGB cells; experiment: Effect on promoting elastin production (Elastin Assay Kit); conditions: aged cells, 48 hours, normal cell = 1.00
Method: It is known that elastin is a fiber-like protein, which has a main function of crosslinking collagen, is present in the dermis of the skin, blood vessels, ligaments, and the like, and provides elasticity to the skin. The effect of a hydroxycitric acid derivative on elastin production was examined by the following method. The aged cells and normal, unprocessed cells which were produced in Example 1 were prepared at a seeding density of 4,000 cells/cm^2 and cultured for 24 hours in the DMEM medium containing 10% fetal bovine serum. The hydroxycitric acid derivatives according to the present invention which were dissolved in 50% ethanol to the final concentration of 0 μM (for a control), 0.01 μM, and 0.1 μM were added to the DMEM medium containing 10% fetal bovine serum, and culturing was performed for 48 hours. After that, cells were collected, elastin was extracted using Elastin Assay Kit manufactured by Biocolor Ltd., and an absorbance of the extracted solution was measured at a wavelength of 513 nm.

| Compound | Relative fluorescence intensity (green fluorescence of dead cells in which apoptosis had been caused) [1] | Relative fluorescence intensity (red fluorescence intensity divided by green fluorescence intensity; effect on mitochondrial function improvement) [2] | Relative absorbance (513 nm) (elastin production) ([3]; specimen 0.01 μM) | Relative absorbance (513 nm) (elastin production) ([3]; specimen 0.1 μM) |
| --- | --- | --- | --- | --- |
| CCCCCCCCCCCCCC(=O)OC(CC(=O)O)(C(=O)O)C(O)C(=O)O (centres unmarked) [Hydroxycitric acid-2-myristate] | 1.13 | 0.66 | 0.93 | 0.94 |
| Hydroxycitric acid-2-palmitate | 1.04 | 0.72 | 1.11 | 1.06 |
